From patent US20210315893A1 (Galapagos NV, priority 2017, published 2021)

Tests used:
[1] = tested on: HFL-1 cells; test: IL8 assay in the presence of Human Serum Albumin; details: HFL1, read-out: HSA IL8 EC50
Procedure: To evaluate the influence of plasma protein binding of S1P as well as compound, the S1P induced IL-8 levelswereevaluatedin presence of Human Serum Albumin (HSA, equivalent to 40% human serum).
Human Fetal Lung cells (HFL-1) are seeded in 96 well plates in growth medium (F12K+10% heat inactivated FBS+1% Pen/strep). […] On day three, compounds are added (10 point serial dilution, 30 μM highest concentration, 1/3 dilution, 0.3% DMSO final) and plates are incubated for 1 h at 37° C., 5% CO2. Subsequently S1P at 5 μM final concentration is added and plates are incubated for 16 to 24 h at 37° C., 5% COafter which the supernatant was collected. IL-8 levels in the supernatant are determined with the IL-8 ELISA of R&D systems.

[2] = tested on: HFL-1 cells; test: IL-8 production assay (S1P induced IL-8); type: cell-based; details: Homo sapiens, HFL1; S1P (1 μM) induced IL-8 in HFL-1 cells, starvation medium without HSA; read-out: IL8 EC50
Summary of the method: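 HFL-1 human fetal lung fibroblasts were starved in F12K/1% FBS, then given compound for 1 h (10-point, 1/3 dilution, 30 μM top, 0.3% DMSO final). S1P was added at 1 μM final for 16–24 h at 37 °C, and secreted IL-8 in supernatant quantified by ELISA.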

[3] = target: T1, human GPCR sphingosine 1-phosphate receptor 5 (Homo sapiens, UniProt Q9H228); test: S1PR5 selectivity Ca2+ flux assay (antagonist readout); type: cell-based; details: CHO cells overexpressing human S1PR5 and Gq, agonist at EC80 (20 nM), read-out: S1P5 EC50 (nM), S1P5 antagonist EC50
T1 construct: host or cells: CHO
T1 sequence (Q9H228 whole entry): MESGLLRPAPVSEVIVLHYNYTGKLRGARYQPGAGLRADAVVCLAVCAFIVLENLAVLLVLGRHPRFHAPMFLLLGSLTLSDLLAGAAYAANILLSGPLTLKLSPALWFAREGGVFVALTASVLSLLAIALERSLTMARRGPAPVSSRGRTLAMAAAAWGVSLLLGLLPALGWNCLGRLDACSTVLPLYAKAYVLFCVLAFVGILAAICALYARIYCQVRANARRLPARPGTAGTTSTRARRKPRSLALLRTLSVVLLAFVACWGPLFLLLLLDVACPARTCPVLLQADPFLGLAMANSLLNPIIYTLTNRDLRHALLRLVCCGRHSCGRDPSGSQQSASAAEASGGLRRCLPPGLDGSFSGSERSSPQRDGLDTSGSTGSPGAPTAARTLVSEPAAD
Summary of the method: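 CHO cells stably coexpressing human S1PR5 and Gq were serum-starved, Fluo 8-loaded and preincubated 15 min at 37° C with compound. They were then stimulated at EC80 with an S1PR5-specific agonist, and calcium fluorescence was recorded for 3 min. Peak/baseline ratios were normalized to controls and fitted to a four-parameter IC50 equation.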

[4] = target: T2, human GPCR sphingosine 1-phosphate receptor 1 (Homo sapiens, UniProt P21453); test: S1PR1 selectivity Ca2+ flux assay (antagonist readout); type: cell-based; details: antagonist readout, CHO cells overexpressing human S1PR1 and Gq, S1P at EC80 (6 nM); read-out: S1P1 EC50 (nM), S1P1 antagonist EC50
T2 construct: host or cells: CHO
T2 sequence (P21453 whole entry): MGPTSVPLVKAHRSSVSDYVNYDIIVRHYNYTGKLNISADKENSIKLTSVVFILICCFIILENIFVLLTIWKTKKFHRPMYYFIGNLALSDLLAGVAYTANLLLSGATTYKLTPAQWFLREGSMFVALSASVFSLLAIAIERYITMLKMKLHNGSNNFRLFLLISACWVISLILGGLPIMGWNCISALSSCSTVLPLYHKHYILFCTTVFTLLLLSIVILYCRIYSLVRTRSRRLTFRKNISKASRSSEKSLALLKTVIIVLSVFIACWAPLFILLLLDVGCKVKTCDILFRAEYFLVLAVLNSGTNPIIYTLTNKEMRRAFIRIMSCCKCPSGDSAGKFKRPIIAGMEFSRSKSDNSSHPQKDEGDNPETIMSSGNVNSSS
Summary of the method: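 CHO cells stably overexpressing human S1PR1, starved 1 h in 0.1% FAF BSA medium, then Fluo 8 dye-loaded. Compound added, then after 15 min at 37 °C, S1P-evoked Ca2+ flux recorded. Maximal signal/background ratio normalized to controls as % inhibition; IC50 from four-parameter logistic fit.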

[5] = target: T3, S1PR2 (Homo sapiens, UniProt O95136); test: S1PR2 binding assay (competition with radioactively labeled S1P, SpA); details: membranes from stable cell line over expressing S1PR2, SpA beads; read-out: S1P2 EC50 (nM), S1PR2 binding EC50
T3 construct: expressed in transfected cells
T3 sequence (O95136 whole entry): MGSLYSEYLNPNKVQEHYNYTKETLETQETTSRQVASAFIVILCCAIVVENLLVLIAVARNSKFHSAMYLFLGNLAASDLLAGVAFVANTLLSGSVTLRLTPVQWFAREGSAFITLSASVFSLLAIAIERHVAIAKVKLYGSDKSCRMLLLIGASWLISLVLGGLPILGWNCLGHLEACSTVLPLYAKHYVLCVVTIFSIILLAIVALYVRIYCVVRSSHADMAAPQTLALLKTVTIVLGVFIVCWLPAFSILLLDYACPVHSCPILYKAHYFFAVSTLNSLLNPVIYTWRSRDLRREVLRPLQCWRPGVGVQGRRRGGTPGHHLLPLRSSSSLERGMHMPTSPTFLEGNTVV
Summary of the method: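 Competition with [3H]S1P for membranes from a stable S1PR2-overexpressing cell line, 20 μg/well, captured on PVT-WGA SPA beads, in 20 mM Tris pH 7.5, 10 mM MgCl2, 100 mM NaCl, 0.4% fatty-acid-free BSA, 1 mM Na3VO4. 2 h at room temperature, then centrifugation and scintillation counting.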

[6] = target: T4, human GPCR sphingosine 1-phosphate receptor 2 (Homo sapiens, UniProt O95136); test: S1PR2 antagonist Ca2+ flux assay; type: cell-based; details: antagonist mode, CHO-S1PR2 cells, S1P at EC80, Ca2+ fluorescence; read-out: S1P2 EC50 (nM), S1P2 antagonist EC50
T4 construct: host or cells: CHO
T4 sequence (O95136 whole entry): as above
Summary of the method: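 CHO cells stably expressing human S1PR2, serum-starved 1 h, Fluo8-loaded; compound-evoked Ca2+ fluorescence read 3 min (agonist mode), then after 15 min S1P at EC80 added and read 3 min (antagonist mode). Max/baseline fluorescence ratios normalised to vehicle and S1P EC100 or EC50 controls; EC50 derived.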

Compound | EC50 [1] [nM] | EC50 [2] [nM] | EC50 [3] [nM] | EC50 [4] [nM] | EC50 [5] [nM] | EC50 [6] [nM]
O=C(O)Cn1nc(Cc2nc3cc(Cl)c(OCC(F)F)cc3[nH]2)c2c(c1=O)CCCC2 [Compound 119, 2-[4-[[5-chloro-6-(2,2-difluoroethoxy)-1H-benzimidazol-2-yl]methyl]-1-oxo-5,6,7,8-tetrahydrophthalazin-2-yl]acetic acid] | 189 | 11.3 | 19800 | ≥ 19800 | 23.3 | 6.58
COc1cc2[nH]c(Cc3nn(CC(=O)O)c(=O)c4c3CCCC4)nc2cc1Cl [Compound 120, 2-[4-[(5-chloro-6-methoxy-1H-benzimidazol-2-yl)methyl]-1-oxo-5,6,7,8-tetrahydrophthalazin-2-yl]acetic acid] | 822 | 96.7 | 19800 | ≥ 19800 | 392 | 57
O=C(O)Cn1cc(Cc2nc3cc(Cl)c(OCC(F)F)cc3[nH]2)c2ccccc2c1=O [Compound 125, {4-[5-Chloro-6-(2,2-difluoro-ethoxy)-1H-benzoimidazol-2-ylmethyl]-1-oxo-1H-isoquinolin-2-yl}-acetic acid] | 1680 | 66.1 | 19800 | ≥ 19800 | 200 | 24.4
O=C(O)Cn1nc(Cc2nc3cc(OCC(F)F)c(Cl)cc3[nH]2)c2c(F)ccc(F)c2c1=O [Compound 126, 2-[4-[[6-chloro-5-(2,2-difluoroethoxy)-1H-benzimidazol-2-yl]methyl]-5,8-difluoro-1-oxo-phthalazin-2-yl]acetic acid] | 113 | 5.97 | 19800 | ≥ 19800 | 93.5 | 19.1
CC(C)(C)NC(=O)Cn1nc(Cn2cc3cc(OCC4CC4)c(Cl)cc3n2)c2ccccc2c1=O [Compound 144, N-tert-butyl-2-[4-[[6-chloro-5-(cyclopropylmethoxy)indazol-2-yl]methyl]-1-oxo-phthalazin-2-yl]acetamide] | 3400 | 511 | 19800 | ≥ 19800 | 226 | 191
O=C(Cn1nc(Cc2nc3cc(Cl)c(OCC4CC4)c(F)c3[nH]2)c2ccccc2c1=O)N1CCOCC1 [Compound 149, 4-[[5-chloro-6-(cyclopropylmethoxy)-7-fluoro-1H-benzimidazol-2-yl]methyl]-2-(2-morpholino-2-oxo-ethyl)phthalazin-1-one] | 381 | 211 | 19800 | ≥ 19800 | 142 | 30.4
N#Cc1ccc2c(=O)n(CC(=O)N3CCOCC3)nc(Cc3nc4cc(OCC(F)F)c(Cl)cc4[nH]3)c2c1 [Compound 153] | 254 | 27.4 | 19800 | ≥ 19800 | 246 | 28.5
O=C(Cc1nn(Cc2nc3cc(OCC(F)F)c(Cl)cc3[nH]2)c2ccccc2c1=O)N1CCOCC1 [Compound 159, 1-[6-Chloro-5-(2,2-difluoro-ethoxy)-1H-benzoimidazol-2-ylmethyl]-3-(2-morpholin-4-yl-2-oxo-ethyl)-1H-cinnolin-4-one] | 14 | 1.02 | 19800 | ≥ 19800 | 30.7 | 9.25
N#CC1(COc2cc3[nH]c(Cc4nn(CC(=O)N5CCOCC5)c(=O)c5ccccc45)nc3cc2Cl)CC1 [Compound 161, 1-[[6-chloro-2-[[3-(2-morpholino-2-oxo-ethyl)-4-oxo-phthalazin-1-yl]methyl]-3H-benzimidazol-5-yl)oxymethyl]cyclopropanecarbonitrile] | 108 | 47.4 | 19800 | ≥ 19800 | 154 | 15.6
N#Cc1cc2nc(Cc3nn(CC(=O)N4CCOCC4)c(=O)c4c3CCCC4)[nH]c2cc1OCC(F)F [Compound 164, 6-(2,2-difluoroethoxy)-2-[[3-(2-morpholino-2-oxo-ethyl)-4-oxo-5,6,7,8-tetrahydrophthalazin-1-yl]methyl]-1H-benzimidazole-5-carbonitrile] | 64.9 | 42.6 | 19800 | ≥ 19800 | 129 | 31.9

More lines, in order of falling EC50 [1], values ahead:

EC50 [1] [nM] | EC50 [2] [nM] | EC50 [3] [nM] | EC50 [4] [nM] | EC50 [5] [nM] | EC50 [6] [nM] | Compound
3460 | 24.3 | 19800 | ≥ 19800 | 178 | 37.5 | N#Cc1cc2nn(Cc3nn(CC(=O)O)c(=O)c4ccccc34)cc2cc1OCC1CC1 [Compound 135, 2-[4-[[6-cyano-5-(cyclopropylmethoxy)indazol-2-yl]methyl]-1-oxo-phthalazin-2-yl]acetic acid]
868 | 593 | 19800 | ≥ 19800 | 647 | 59.8 | O=C(Cn1nc(Cc2nc3cc(OCC(F)F)c(F)cc3[nH]2)c2ccccc2c1=O)N1CCOCC1 [Compound 156, 4-[[5-(2,2-difluoroethoxy)-6-fluoro-1H-benzimidazol-2-yl]methyl]-2-(2-morpholino-2-oxo-ethyl)phthalazin-1-one]
701 | 30.8 | 19800 | ≥ 19800 | 1970 | 28.3 | CCOc1cc2[nH]n(Cc3nn(CC(=O)O)c(=O)c4ccccc34)c(=O)c2cc1Cl [Compound 128, 2-[4-[(5-chloro-6-ethoxy-3-oxo-1H-indazol-2-yl)methyl]-1-oxo-phthalazin-2-yl]acetic acid]
280 | 29.5 | 6640 | ≥ 19900 | 23 | 15.3 | O=C(Cn1nc(Cc2nc3cc(Cl)c(OC(F)(F)F)cc3[nH]2)c2c(c1=O)CCCC2)N[C@H]1CCC[C@@H]1O [Compound 146, 2-[4-[[5-chloro-6-(trifluoromethoxy)-1H-benzimidazol-2-yl]methyl]-1-oxo-5,6,7,8-tetrahydrophthalazin-2-yl]-N-[(1S,2S)-2-hydroxycyclopentyl]acetamide]
201 | 6.65 | 19800 | ≥ 19800 | 64 | 19.1 | O=C(Cn1nc(Cc2nc3cc(OCC(F)F)c(Cl)cc3[nH]2)c2c(F)ccc(F)c2c1=O)N1CCOCC1 [Compound 152, 4-[[6-chloro-5-(2,2-difluoroethoxy)-1H-benzimidazol-2-yl]methyl]-5,8-difluoro-2-(2-morpholino-2-oxo-ethyl)phthalazin-1-one]
163 | 10.1 | 19800 | 12000 | 745 | 10 | O=C(O)Cn1nc(Cn2[nH]c3cc(OCC4CC4)c(Cl)cc3c2=O)c2ccccc2c1=O [Compound 134, 2-[4-[[5-chloro-6-(cyclopropylmethoxy)-3-oxo-1H-indazol-2-yl]methyl]-1-oxo-phthalazin-2-yl]acetic acid]
61.7 | 13.6 | 19800 | 3500 | 479 | 8.27 | CCOc1cc2nc(Cc3nn(CC(=O)O)c(=O)c4ccccc34)[nH]c2cc1C(F)(F)F [Compound 127, 2-[4-[[5-ethoxy-6-(trifluoromethyl)-1H-benzimidazol-2-yl]methyl]-1-oxo-phthalazin-2-yl]acetic acid]
18.4 | 6.61 | 19800 | ≥ 19800 | 191 | 13.2 | CCOc1cc2[nH]c(Cc3nn(CC(=O)N4CCOCC4)c(=O)c4c3CCCC4)nc2cc1C#N [Compound 167, 6-ethoxy-2-[[3-(2-morpholino-2-oxo-ethyl)-4-oxo-5,6,7,8-tetrahydrophthalazin-1-yl]methyl]-1H-benzimidazole-5-carbonitrile]
13.3 | 2.29 | 19800 | 3720 | 342 | 13.6 | CC(C(=O)O)n1nc(Cc2nc3cc(OCC4CC4)c(Cl)cc3[nH]2)c2ccccc2c1=O (stereo not drawn) [Compound 122, 2-[4-(6-Chloro-5-cyclopropylmethoxy-1H-benzoimidazol-2-ylmethyl)-1-oxo-1H-phthalazin-2-yl]-propionic acid]
